This is an account of results in ChEMBL document CHEMBL1201862, “PubChem BioAssay data set” (2004).

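How tested: cells in 96-well plates exposed to compound for 48 hours at five concentrations. GI50 marks 50% less growth.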 Active and inactive are the calls of the source. Rule as the data show it: active = GI50 up to about 1.1 µM and inactive = higher.

What all share (assay): NCI-60 cell line screen, 48 h
Assay [1] deals with HCT-116.
The subject of assay [2] is RPMI-8226.
Assay [3] deals with IGROV-1.
Assay [4] deals with CAKI-1.
Assay [5] deals with Malme-3M.
In assay [6] the test system is HCT-15.
In assay [7] the test system is KM12.
Assay [8] has as its system SNB-75.
The test system of assay [9] is SF-295.
Assay [10] concerns SW-620.
The subject of assay [11] is EKVX.
Assay [12] has as its system HCC 2998.
For assay [13], the system named is HL-60.
For assay [14], the system named is LOX IMVI.
Assay [15] relates to OVCAR-4.
The subject of assay [16] is SN12C.
Assay [17] has as its system RXF 393.
Assay [18] relates to A549.
Assay [19] deals with NCI-H460.
Assay [20] concerns SK-MEL-28.

Take `COc1ccc(C2COc3cc(OC(C)=O)c(OC(C)=O)cc3C2)cc1` (configuration not stated): the GI50 in assay [1] was 20.4 µM (inactive); in [2] it was 5.97 µM (inactive); in assay [3] it was 26.2 µM (inactive); in assay [4], 23 µM (inactive); in assay [5], 23.2 µM (inactive); in [6], 20.3 µM. The GI50 is 11.4 µM (inactive) in assay [7]; 7.76 µM (inactive) in [8]; 14.1 µM (inactive) in [9]; 14.3 µM (inactive) in assay [10]; 27.2 µM (inactive) in [11]; 23.2 µM (inactive) in assay [12]. Besides, the GI50 in [13] was 2.54 µM (inactive); in [14], 16.5 µM (inactive); in assay [15] it was 16.7 µM (inactive); in [16], 17.5 µM (inactive); in assay [17], 15.5 µM (inactive); in assay [18] it was 11.9 µM (inactive). In addition, the GI50 in assay [19] is 13.9 µM (inactive); in [20], 23.8 µM (inactive).
Turning to `O=c1cnn(C/C=C/CBr)c(=O)[nH]1`, the GI50 was 5.48 µM (inactive) in assay [2]; 16.2 µM (inactive) in [3]; 12.9 µM (inactive) in assay [4]; 16.4 µM (inactive) in assay [5]; 18.2 µM in assay [6]; 17.5 µM (inactive) in assay [7]. Moreover, the GI50 is 18.8 µM (inactive) in assay [8]; 13.6 µM (inactive) in [10]; 19.6 µM (inactive) in assay [11]; 18.5 µM (inactive) in assay [12]; 8.47 µM (inactive) in assay [13]; 16.1 µM (inactive) in assay [14]. The GI50 in [15] is 20.6 µM (inactive); in assay [16], 17.9 µM (inactive); in assay [17], 15.5 µM (inactive); in assay [18], 16.8 µM (inactive); in [19], 17.2 µM (inactive); in assay [20] it was 19.2 µM (inactive).
In the case of `CCCN1C(=O)/C(=C(/O)C(=O)OCC)C(c2ccc(OC)c(OC)c2)C1=O` (configuration not stated), the GI50 in assay [1] was > 100 µM (inactive); in [2], > 93.8 µM (inactive); in assay [3] it was > 100 µM (inactive); in assay [4] it was > 100 µM (inactive); in assay [5] it was > 100 µM (inactive); in assay [6] it was > 100 µM. The GI50 in assay [7], in assay [8], in assay [9], in [10], in assay [11] and in assay [12] was > 100 µM (inactive) throughout. In addition, the GI50 in assay [13], in [14], in assay [15], in [16], in assay [17] and in [18] was > 100 µM (inactive) throughout. The GI50 in assay [19] was > 31.6 µM (inactive); in [20], > 100 µM (inactive).
As to `COc1cccc2c1C(=O)c1c(O)c3c(c(O)c1C2=O)C[C@@](O)(C(=O)CN1CCOCC1)C[C@@H]3OC1CC(N)C(O)C(C)O1` (some centres not stated), the GI50 in assay [1] is 1.89 µM (inactive); in [2], 1.61 µM (inactive); in assay [3], 5.7 µM (inactive); in [5], 3.27 µM (inactive); in assay [6], 12.4 µM; in assay [7], 4.23 µM (inactive). In addition, the GI50 in assay [8] was 5.07 µM (inactive); in [9], 3.72 µM (inactive); in assay [10], 2.34 µM (inactive); in assay [11], 10.4 µM (inactive); in [12], 5.73 µM (inactive); in [13] it was 0.895 µM (active). Besides, the GI50 is 2.09 µM (inactive) in assay [14]; 9.53 µM (inactive) in [15]; 2.4 µM (inactive) in [16]; 6.41 µM (inactive) in [17]; 2.43 µM (inactive) in assay [18]; 0.446 µM (active) in assay [19]. Further, the GI50 in [20] was 12.2 µM (inactive).
In the case of `CCCCN(C)/N=N/c1[nH]cnc1C(N)=O`, the GI50 in assay [1] is > 100 µM (inactive); in assay [2], > 100 µM (inactive); in assay [3], > 77.8 µM (inactive); in assay [4] it was 20.3 µM (inactive); in assay [5] it was > 86.9 µM (inactive); in assay [6] it was > 100 µM. The GI50 was > 100 µM (inactive) in assay [7]; > 100 µM (inactive) in assay [8]; > 94.2 µM (inactive) in assay [9]; > 100 µM (inactive) in assay [10]; > 100 µM (inactive) in assay [11]; > 94.4 µM (inactive) in [12]. The GI50 in [13] is 60.7 µM (inactive); in assay [14], 36.7 µM (inactive); in assay [15] it was 68.9 µM (inactive); in assay [16], > 100 µM (inactive); in [17], > 66.7 µM (inactive); in [18], > 100 µM (inactive). Moreover, the GI50 in assay [19] and in assay [20] was > 100 µM (inactive) in each case.
Take `CCOC(=O)CN(CC)C(=O)NC12CC3CC(CC(C3)C1)C2`: the GI50 in [1] is 189 µM (inactive); in assay [2] it was 141 µM (inactive); in assay [3], 276 µM (inactive); in assay [4] it was 169 µM (inactive); in assay [5], 152 µM (inactive); in assay [6], 220 µM. The GI50 is 255 µM (inactive) in assay [7]; 92.9 µM (inactive) in [8]; 230 µM (inactive) in assay [9]; 219 µM (inactive) in assay [10]; 207 µM (inactive) in [11]; 222 µM (inactive) in assay [12]. In addition, the GI50 in assay [13] was 103 µM (inactive); in assay [14], 151 µM (inactive); in assay [15], 175 µM (inactive); in [16], 288 µM (inactive); in assay [17] it was 173 µM (inactive); in assay [18], 222 µM (inactive). The values for the GI50 in assay [19] and in [20] were 200 µM (inactive) and 269 µM (inactive), respectively.
`CC1=NCCc2cc3[nH]c4ccccc4c3cc21`: the GI50 was 12.8 µM (inactive) in [1]; 13.2 µM (inactive) in assay [2]; 26.9 µM (inactive) in [3]; 5.32 µM (inactive) in assay [4]; 10.7 µM (inactive) in assay [5]; 21.7 µM in assay [6]. The GI50 was 20.8 µM (inactive) in assay [7]; 23.2 µM (inactive) in [8]; 13.4 µM (inactive) in assay [9]; 15.7 µM (inactive) in assay [10]; 41.2 µM (inactive) in assay [11]; 24 µM (inactive) in [12]. The GI50 in assay [13] was 12.1 µM (inactive); in assay [14], 12.6 µM (inactive); in assay [15], 47.5 µM (inactive); in [16] it was 17.5 µM (inactive); in assay [17], 6.4 µM (inactive); in assay [18], 33.2 µM (inactive). The GI50 in assay [19] was 13.3 µM (inactive); in [20], 10.7 µM (inactive).
With `CCOC(=O)c1ccc(N(CCOS(C)(=O)=O)CCOS(C)(=O)=O)cc1`, the GI50 is 30.1 µM (inactive) in assay [1]; 25.1 µM (inactive) in assay [2]; 88.5 µM (inactive) in assay [3]; 12.6 µM (inactive) in [4]; 38.8 µM (inactive) in assay [5]; 40.9 µM in assay [6]. Also, the GI50 was 67.9 µM (inactive) in assay [7]; 51.1 µM (inactive) in assay [9]; 32 µM (inactive) in [10]; 58.3 µM (inactive) in assay [11]; 60.3 µM (inactive) in [12]; 39.9 µM (inactive) in assay [13]. Also, the GI50 in assay [14] was 48.4 µM (inactive); in [15] it was 35.7 µM (inactive); in assay [17], 20 µM (inactive); in assay [18] it was 53 µM (inactive); in [19], 37 µM (inactive); in assay [20], > 100 µM (inactive).
Turning to `c1ccc(-n2cnnc2-c2nsc3ccccc23)cc1`, the GI50 in [1] is > 100 µM (inactive); in assay [2] it was > 100 µM (inactive); in assay [3], > 100 µM (inactive); in [6], 74 µM; in assay [7], > 100 µM (inactive); in assay [8], 29.5 µM (inactive). Besides, the GI50 in assay [10], in [11], in [12], in [13], in [14] and in assay [15] was > 100 µM (inactive) each time. The GI50 in [16], in [17], in assay [18], in assay [19] and in assay [20] was > 100 µM (inactive) throughout.
With `C/C=C1\C[C@@H]2C(OC)Nc3cc(O)c(OC)cc3C(=O)N2C1` (some centres not stated), the GI50 was < 0.01 µM (active) in [1]; < 0.01 µM (active) in [2]; < 0.01 µM (active) in [3]; < 0.01 µM (active) in assay [4]; < 0.01 µM (active) in assay [5]; < 0.01 µM in [6]. The GI50 in assay [7] was 0.0173 µM (active); in assay [8], < 0.01 µM (active); in assay [9], < 0.01 µM (active); in assay [10], < 0.01 µM (active); in [11] it was < 0.0103 µM (active); in assay [12], 0.0158 µM (active). The GI50 in assay [13], in assay [14], in [15], in assay [16], in assay [17] and in assay [18] was < 0.01 µM (active) each time. Moreover, the GI50 in assay [19] was < 0.01 µM (active); in assay [20], < 0.0107 µM (active).
